Measured values: PMC4657098, “A Review of the Updated Pharmacophore for the Alpha 5 GABA(A) Benzodiazepine Receptor Model” (International Journal of Medicinal Chemistry, 2015)
Read-outs that look alike come from different tables or passages of the source.

Assays:
Design in all cases: expressed in transfected cells
[1] = target: α6β3γ2 GABAA/BzR (Homo sapiens, UniProt P18507+Q16445); test: Competition binding to HEK cell membranes, α6β3γ2
[2] = target: α1β3γ2 GABAA/BzR (Homo sapiens, UniProt P14867+P18507); test: Competition binding to HEK cell membranes, α1β3γ2
[3] = target: α5β3γ2 GABAA/BzR (Homo sapiens, UniProt P18507+P31644); test: Competition binding to HEK cell membranes, α5β3γ2
[4] = target: α3β3γ2 GABAA/BzR (Homo sapiens, UniProt P18507+P34903); test: Competition binding to HEK cell membranes, α3β3γ2
[5] = target: α2β3γ2 GABAA/BzR (Homo sapiens, UniProt P18507+P47869); test: Competition binding to HEK cell membranes, α2β3γ2

Work on C#Cc1ccc2c(c1)C(c1ccccc1)=NCc1c(C(=O)OCC(F)(F)F)ncn1-2 [DM-II-20] yielded a Ki ([1]; read-out: Ki α6) of 5000 nM, a Ki ([2]; read-out: Ki α1) of 54.3 nM and a Ki ([3]; read-out: Ki α5) of 15.3 nM. The Ki ([4]; read-out: Ki α3) was 35.7 nM and the Ki ([5]; read-out: Ki α2) was 27.1 nM.
Molecule COCc1c(C(=O)OC(C)C)ncc2[nH]c3ccc(OCc4ccccc4)cc3c12 [ABECARNIL, reference compound] has a Ki ([1]; Ki α6) of 1000 nM, a Ki ([2]; Ki α1) of 12.4 nM and a Ki ([3]; Ki α5) of 6 nM. It also gave a Ki ([4]; Ki α3) of 7.5 nM and a Ki ([5]; Ki α2) of 15.3 nM.
With CCOC(=O)c1ncoc1-c1ncn2c1C1CCN1C(=O)c1cc(C#C[Si](C)(C)C)ccc1-2 (stereo not drawn) [RY-068 (11)] the Ki ([1]; Figure 5, read-out: Ki α6) was greater than 1000 nM, the Ki ([2]; Figure 5, read-out: Ki α1) was greater than 500 nM and the Ki ([3]; Figure 5, read-out: Ki α5) was 37 nM. It also gave a Ki ([4]; Figure 5, read-out: Ki α3) of 496 nM and a Ki ([5]; Figure 5, read-out: Ki α2) of 877 nM.
C#Cc1ccc2c(c1)C(=O)N1CCC1c1c(-c3ocnc3C(=O)OCC)ncn1-2 (stereo not drawn) [RY-069 (13)] gave a Ki ([1]; Figure 5, read-out: Ki α6) greater than 1000 nM, a Ki ([2]; Figure 5, read-out: Ki α1) of 692 nM and a Ki ([3]; Figure 5, read-out: Ki α5) of 19 nM. It also gave a Ki ([4]; Figure 5, read-out: Ki α3) of 506 nM and a Ki ([5]; Figure 5, read-out: Ki α2) of 622 nM.
For CCC(C)OC(=O)c1cc2c(cn1)[nH]c1ccccc12 (stereo not drawn) [CM-A64], the Ki ([1]; read-out: Ki α6) was 1000 nM, the Ki ([2]; read-out: Ki α1) was 18 nM and the Ki ([3]; read-out: Ki α5) was 216 nM. The Ki ([4]; read-out: Ki α3) was 116 nM and the Ki ([5]; read-out: Ki α2) was 60 nM.
CC[C@@H](C)OC(=O)c1cc2c(cn1)[nH]c1ccccc12 [CM-A49 (R)] showed a Ki ([1]; read-out: Ki α6) of 1000 nM, a Ki ([2]; read-out: Ki α1) of 7.7 nM and a Ki ([3]; read-out: Ki α5) of 69 nM. It also gave a Ki ([4]; read-out: Ki α3) of 43 nM and a Ki ([5]; read-out: Ki α2) of 32.5 nM.
C#Cc1ccc2c(c1)C(=O)N1CCC1c1c(-c3ocnc3C(=O)OCC)ncn1-2 (stereo not drawn) [RY-069] gave a Ki ([1]; Ki α6) of 1000 nM, a Ki ([2]; Ki α1) of 692 nM and a Ki ([3]; Ki α5) of 19 nM. For the same molecule, the Ki ([4]; Ki α3) was 506 nM and the Ki ([5]; Ki α2) was 622 nM.
For CCOC(=O)c1ncc2[nH]c3cc(OC)c(OC)cc3c2c1CC [MSR-I-032], the Ki ([1]; read-out: Ki α6) was 74.9 nM, the Ki ([2]; read-out: Ki α1) was 6.2 nM and the Ki ([4]; read-out: Ki α3) was 4 nM. The Ki ([5]; read-out: Ki α2) was 18.7 nM.
In the case of CCCCc1cc2c(cn1)[nH]c1ccc(F)cc12 [CM-A58], the Ki ([1]; read-out: Ki α6) is reported as 1010 nM, the Ki ([2]; read-out: Ki α1) is reported as 16 nM and the Ki ([3]; read-out: Ki α5) is reported as 1000 nM. It also gave a Ki ([4]; read-out: Ki α3) of 184 nM and a Ki ([5]; read-out: Ki α2) of 120 nM.
In the case of O=C(OCC(F)(F)F)c1ncn2c1CN=C(c1ccccc1F)c1cc(-c3ccco3)ccc1-2 [JYI-54], the Ki ([1]; read-out: Ki α6) is reported as 1890 nM, the Ki ([2]; read-out: Ki α1) is reported as 2.89 nM and the Ki ([3]; read-out: Ki α5) is reported as 57 nM. For the same molecule, the Ki ([4]; read-out: Ki α3) was 6.7 nM and the Ki ([5]; read-out: Ki α2) was 172 nM.
Work on C#Cc1ccc2c(c1)C(c1ccccc1F)=NCC(=O)N2 [JYI-60] yielded a Ki ([1]; read-out: Ki α6) of 5000 nM, a Ki ([2]; read-out: Ki α1) of 3.73 nM and a Ki ([3]; read-out: Ki α5) of 1.7 nM. The Ki ([4]; read-out: Ki α3) was 4.3 nM and the Ki ([5]; read-out: Ki α2) was 1.64 nM.
COc1ccc2c(c1)C(=O)N(C)Cc1c(C(=O)OC(C)(C)C)ncn1-2 [DM-215] showed a Ki ([1]; read-out: Ki α6) of 8.28 nM, a Ki ([2]; read-out: Ki α1) of 6.74 nM and a Ki ([3]; read-out: Ki α5) of 0.293 nM. For the same molecule, the Ki ([4]; read-out: Ki α3) was 7.42 nM.
Work on O=C(OCC(Cl)(Cl)Cl)c1ncn2c1CN=C(c1ccccc1)c1cc(Br)ccc1-2 [DM-II-33 (C20H13N3O2BrCl3)] yielded a Ki ([1]; read-out: Ki α6) of 5000 nM, a Ki ([2]; read-out: Ki α1) of 88.6 nM and a Ki ([3]; read-out: Ki α5) of 26.2 nM. The Ki ([4]; read-out: Ki α3) was 11.6 nM and the Ki ([5]; read-out: Ki α2) was 85 nM.
For C#Cc1ccc2c(c1)C(=O)N(C)Cc1c(C(=O)OCCCCCOC(=O)c3ncn4c3CN(C)C(=O)c3cc(C#C)ccc3-4)ncn1-2 [compound 56, 1,5-Bis(8-acetyleno-5,6-dihydro-5-methyl-6-oxo-4H-imidazo[1,5a][1,4]benzodiazepine-3-carboxy) pentyl diester], the Ki ([1]; Ki α6) was 54.2 nM, the Ki ([2]; Ki α1) was 231 nM and the Ki ([3]; Ki α5) was 5.4 nM. For the same molecule, the Ki ([4]; Ki α3) was 2670 nM and the Ki ([5]; Ki α2) was 661 nM.
Cc1nnc2n1-c1ccc(Br)cc1C(c1ccccc1Cl)=NC2 [DM-II-90 (C17H12N4BrCl)] was tested, and the Ki ([1]; read-out: Ki α6) was 5000 nM, the Ki ([3]; read-out: Ki α5) was 0.37 nM and the Ki ([4]; read-out: Ki α3) was 0.63 nM. It also gave a Ki ([5]; read-out: Ki α2) of 1 nM.
In the case of CC[C@H](C)OC(=O)c1cc2c(cn1)[nH]c1ccccc12 [CM-A50 (S)], the Ki ([1]; read-out: Ki α6) is reported as 1000 nM, the Ki ([2]; read-out: Ki α1) is reported as 17 nM and the Ki ([3]; read-out: Ki α5) is reported as 144 nM. For the same molecule, the Ki ([4]; read-out: Ki α3) was 88 nM and the Ki ([5]; read-out: Ki α2) was 59 nM.
Molecule CN1Cc2c(C(=O)OC(C)(C)C)ncn2-c2ccc(N3CCCC3)cc2C1=O [DM-139] has a Ki ([1]; read-out: Ki α6) of 325 nM, a Ki ([2]; read-out: Ki α1) of 5.8 nM and a Ki ([3]; read-out: Ki α5) of 9.25 nM. It also gave a Ki ([4]; read-out: Ki α3) of 169 nM.
